Measured values from patent US11213516B2, “Intravaginally applicable devices comprising antiviral compounds” (AICURIS ANTI-INFECTIVE CURES GMBH, priority 2017, dated 2022).

Legend:
[1] = In vitro release from matrix-type silicone elastomer vaginal rings; assay type: physicochemical; settings: isopropanol/H2O, 37° C.
Procedure: HPLC analysis was conducted using an Agilent 1200 Series HPLC system, consisting of a quaternary HPLC pump, an auto sampler, an in-line Degasser AF Unit, a dual λ absorbance detector, and a column heater. A BDS Hypersil C18 (Thermo Scientific) column (length 150 mm, id 4.6 mm, particle size 3 μm) was used. The mobile phase comprised 45% of 1% w/v glacial acetic acid and 55% methanol pumped isocratically at a flow rate of 1 mL/min. The sample injection volume was 25 μL, the column temperature was 25° C., and detection was performed at 280 nm. Run time for the method was 5 min
Human-sized (56 mm or ×7.6 mm id), matrix-type, silicone elastomer vaginal rings containing either 25 mg or 400 mg of Pritelivir were manufactured by reaction injection molding of drug+silicone mixes. For the 25 mg rings, 272 mg Pritelivir free base or Pritelivir mesylate salt was weighed into a polypropylene Speedmixer container along with DDU-4320 silicone elastomer Part A (40 g) and Part B (40 g). After mixing (Speedmixer DAK 150 FVZ-K; 3000 rpm for 30 sec), the mixture was transferred to a 60 mL disposable plastic syringe and injected into pre-heated (90° C.) custom, two-cavity ring molds fitted to a laboratory-scale injection molding machine. After 3 minutes, the cured rings were removed from the molds. For the 400 mg rings, 4325 mg of Pritelivir free base or Pritelivir mesylate salt was weighed. Four samples of each ring type were manufactured.
Pritelivir rings were individually placed into stoppered glass flasks containing 100 mL isopropanol/H2O. The flasks were placed in a shaking orbital shaker (37° C., 60 rpm). The release medium was sampled (˜5 mL) every 24 h over a fourteen day period, with complete replacement of the 100 mL release medium at each sampling point to maintain sink conditions. Quantification of Pritelivir free base or Pritelivir mesylate salt concentrations in the samples was performed using the HPLC-UV method.

[2] = Safety and tolerance of Pritelivir loaded rings (clinical signs, body weights); assay type: in vivo, Cynomolgus monkeys; settings: single vaginal doses as rings: 40 or 240 mg free base, 49.6 or 297 mg mesylate
Procedure: The study was performed in four single dose phases with 28-day sampling period after Phases 1 and 2 (7-day washout period between doses). Vaginal rings were investigated for Pritelivir free base and Pritelivir mesylate salt at two dose levels per formulation. The test items were applied as vaginal ring in Phases 1 and 2 to female monkeys. The study design is below in the Table 3.
The study was designed to obtain information on the time-course of unchanged test compound concentrations in plasma and vaginal fluid/tissue, following single intravaginal administration of rings to female Cynomolgus monkeys. Objectives of this study were to determine the safety and tolerance of Pritelivir loaded rings, as well as systemic and local exposure (plasma, vaginal fluid and vaginal and vulval tissue, respectively). Local exposures were compared with in vitro efficacy data of Pritelivir to get an idea on initial pharmacokinetic/pharmacodynamic (PK/PD) parameters for vaginal rings, i.e. to assess the potential ability of a Pritelivir loaded ring to suppress viral replication in the target tissue. Table 9 gives an overview on the EC50 values of Pritelivir on HSV-1 and HSV-2 Data source: Field, H. J., et al., Baseline sensitivity of HSV-1 and HSV-2 clinical isolates and defined acyclovir-resistant strains to the helicase-primase inhibitor pritelivir. Antiviral Res, 2013. 100(2): p. 297-9. […]

Cumulative Day 14 release ([1]; 25 mg matrix-type ring): 604.13 µg
Mean Day 1 release ([1]; 25 mg matrix-type ring): 122.17 µg
Mean Day 14 release ([1]; 25 mg matrix-type ring): 24.77 µg
Release rate ([1]; 25 mg matrix-type ring): 177.0 µg/day
Cumulative Day 14 release ([1]; 400 mg matrix-type ring): 2,495.52 μg
Mean Day 1 release ([1]; 400 mg matrix-type ring): 443.45 µg
Mean Day 14 release ([1]; 400 mg matrix-type ring): 102.16 µg
Release rate ([1]; 400 mg matrix-type ring): 752.5 µg/day
Structure (SMILES): Cc1nc(N(C)C(=O)Cc2ccc(-c3ccccn3)cc2)sc1S(N)(=O)=O [Pritelivir free base]
Adverse findings for clinical signs or body weights [2]: did not result in any adverse findings
